Results from the NIST ThermoML archive (doi:10.1016/j.jct.2004.07.014).
Numbers after ± are expanded uncertainties.

Conditions: Liquid, Closed cell (Static) method

SMILES: CC#N [acetonitrile]
- vapor or sublimation pressure (305.51 K): 16.47 ± 0.22 kPa
- vapor or sublimation pressure (323.12 K): 33.71 ± 0.25 kPa
- vapor or sublimation pressure (353.13 K): 96.17 ± 0.37 kPa
